# From patent US20210169984A1, “SENSITIZING CANCER TO DEATH RECEPTOR AGONISTS WITH KINASE INHIBITORS” (The Johns Hopkins University, priority 2016, published 2021)
# “Also recorded” adds a separate entry of the source.
# Tests used:
# [1] = system: HT29 (CRC) cells; assay: KI library screen for TRAIL sensitization (KI pretreatment, then TRAILPEG; MTT cell death assay); type: cell-based, human
# Method: The screening is performed using an MTT cell death assay in CRC cells with different TRAIL sensitivities.
# [2] = system: HP LNCAP prostate adenocarcinoma cells; assay: KI library screen for TRAIL sensitization; type: cell-based, human
# Text: (§1) A library of KIs was screened for TRAIL sensitization in various TRAIL-resistant cancer cells, including: HT29 (CRC), MDA-MB-231 (breast), LNCAP (prostate), DU145 (prostate), PC3 (prostate) and A549 (lung). […] The 355 KIs comprised of compounds targeting diverse kinases, including multi kinases, RTK (receptor kinase tyrosine), PI3K (phosphinistide 3-kinase), aurora kinases, including […] (mitogen-activated protein kinase). […] The interaction between KIs and TRAIL had been previously explored in vitro with the tyrosine KI sorafenib, a drug similar to regorafenib. However, such studies were mostly performed on cellular levels and not in in vivo models, combined with systemically administered recombinant TRAIL. Although a similar structure, regorafenib was newly approved in 2012. The interactions between the three other selected KIs and TRAIL have not been previously reported, in vitro or in vivo.
# (§2) Regorafenib potentiated TRAIL-induced apoptosis in prostate cancer cells (LNCAP, HPLNCAP (High Passages LNCAP), DU-145 and PC-3) when combined with TRAILPEG (1 μg/mL) (FIG. 5). After treating cells with regorafenib (5 μM), caspases and anti-apoptotic proteins were analyzed by western blotting (FIG. 6A-FIG. 6C). […] Data confirmed that FDA-approved KIs or KIs under clinical development synergized with long-acting TRAILPEG by overcoming TRAIL-resistance through unique TRAIL sensitization mechanisms.
# [3] = system: PC3 prostate adenocarcinoma cells; assay: KI library screen for TRAIL sensitization; type: cell-based, human
# Method: FIG. 2B depicts a bar graph showing quantified cell death after analyzing synergized cell death induced by TRAILPEG (1 μg/mL for 3 hr) and kinase inhibitors (KIs) in HT29 (human colon tumor cell line) and PC3 (human prostate tumor cell line) cells individually pretreated with selected 355 KIs. Relative cell death rates were calculated by [KI+TRAILPEG]/[KI alone] after separate MTT assays. The arrows indicate KIs with >60% cell death; n=3.
# as §1
# [4] = system: HT-29 cells; assay: Quantified cell death after combinatorial treatment with regorafenib and TRAILPEG (FIG. 3A); type: cell-based, human; details: regorafenib combined with TRAILPEG 1 μg/mL
# Method: FIG. 3A depicts a bar graph showing that regorafenib (an oral, multi-kinase inhibitor) enhanced TRAILPEG -induced apoptosis in colorectal cancer (CRC) cells. Quantified cell death after combinatorial treatment with regorafenib and TRAILPEG (1 μg/mL) in HT-29 cells is shown.
# (§3) Regorafenib potentiated TRAIL-induced apoptosis in HT-29 cells when combined with TRAILPEG (1 μg/mL) (FIG. 3A). After treating cells with regorafenib (2 μM), caspases and anti-apoptotic proteins were analyzed by western blotting (FIG. 3B). […] Data confirmed that FDA-approved KIs or KIs under clinical development synergized with long-acting TRAILPEG by overcoming TRAIL-resistance through unique TRAIL sensitization mechanisms.
# [5] = system: HT29 cells; assay: Western blot of caspases and anti-apoptotic proteins, regorafenib alone or with TRAILPEG (FIG. 3B); type: cell-based, human
# Method: FIG. 3B depicts a Western blot analysis of HT29 cells with regorafenib alone or in combination with TRAILPEG.
# as §3
# [6] = system: HT29 cells; assay: qPCR of death receptors and decoy receptors (FIG. 4A); type: cell-based, human; details: regorafenib 2 μM
# Method: FIG. 4A depicts a bar graph showing qPCR analysis of death receptors (DRs) and decoy receptors (DcRs) in HT29 cells treated with regorafenib for 24 hours or 48 hours as indicated; *P<0.05, **P<0.01, ***P<0.001 versus control.
# (§4) HT29 cells were treated with regorafenib (2 μM) for 24 hour or 48 hour as indicated. mRNAs for TRAIL receptors were measured by quantitative RT-PCR (qPCR) (FIG. 4A). […] After treating HT29 cells with regorafenib as indicated, DR4/5 or anti-apoptotic proteins were analyzed by Western blot (FIG. 4B). […] Conversely, anti-apoptotic proteins MCL-1 and BCL-2 were absent in HT29 cells treated with regorafenib for 48 hours. It has been previously reported that TRAIL receptors could be induced by signaling including NF-κB, ER stress, and JNK-ROS.
# [7] = system: HT29 cells; assay: Western blot of DR4/5 and anti-apoptotic proteins (FIG. 4B); type: cell-based, human; details: regorafenib, 48 hours
# Method: as §4
# [8] = system: prostate cancer cells (LNCAP, HPLNCAP, DU-145 and PC-3); assay: Quantified cell death after regorafenib and TRAILPEG in prostate cancer cells; type: cell-based, human; details: regorafenib 5 μM combined with TRAILPEG 1 μg/mL
# Method: FIG. 7 is a bar graph showing that regorafenib enhanced TRAILPEG-induced apoptosis in prostate cancer cells. Quantified cell death after combinatorial treatment with regorafenib (5 μM) and TRAILPEG (1 μg/mL) in various prostate cancer cells is shown. *P<0.05, **P<0.01, ***P<0.001 versus control (regorafenib only).
# as §2
# [9] = system: prostate cancer cells (LNCAP, DU145, PC-3); assay: Western blot of prostate cancer cells, regorafenib alone or with TRAILPEG (FIG. 6A-6C); type: cell-based, human
# Method: (§5) FIG. 5 depicts a bar graph showing results of tumor volumes in mice bearing TRAIL-resistant HT29 tumors treated with three rounds of TRAILPEG (150 μg, i.v), oral regorafenib (10 mg/kg) or oral regorafenib with TRAILPEG within days (12-17) after tumor inoculation. Mice were sacrificed on day 27. […] FIG. 6A depicts a Western blot analysis of LNCAP prostate cancer cells with regorafenib alone or in combination with TRAILPEG.
# FIG. 6B depicts a Western blot analysis of DU145 prostate cancer cells with regorafenib alone or in combination with TRAILPEG.
# FIG. 6C depicts a Western blot analysis of PC-3 prostate cancer cells with regorafenib alone or in combination with TRAILPEG.
# as §2
# [10] = system: HT29 xenografts; assay: TRAIL-resistant HT29 tumor xenograft; type: in vivo; details: oral regorafenib 10 mg/kg days 12, 14, 16; TRAILPEG 150 μg i.v. days 13, 15, 17; sacrifice day 27
# Method: as §5
# The therapeutic combination of oral regorafenib and TRAILPEG in HT29 xenografts in comparison to regorafenib and TRAILPEG alone (FIG. 7) were investigated. HT29 xenografts were treated with oral regorafenib (10 mg/kg) or saline on the 12th, 14th, and 16th days of tumor inoculation. On the 13th, 15th, and 17th days, animals were given an i.v. dose of TRAILPEG (150 μg). Animals were sacrificed on day 27.
# [11] = system: TRAIL-resistant cancer cells (HT29, MDA-MB-231, LNCAP, DU145, PC3, A549); assay: Cell death after TRAIL / TRAILPEG alone in various cancer cells (FIG. 2A); type: cell-based, human; details: TRAIL 1 μg/mL for 24 hours
# Method: Quantified cell death data after TRAIL (1 μg/mL) treatment for 24 hours in various cancer cell types are shown. Human tumor cell lines include: colon (HT-29, SW620, HCT116), prostate (PC3), breast (MDA-MD-231, MCF-7), lung (A549). HCT116 represents a TRAIL-sensitive colorectal tumor for comparison. HEK293T is a normal human kidney cell line.
# as §1
# [12] = mouse, in vivo; cited from earlier work
# [13] = in vivo; cited from earlier work
# [14] = system: cancer patients; details: cited from earlier work
# [15] = regorafenib 5 μM combined with TRAILPEG
compound,measurement,setting,value
"CNC(=O)c1cc(Oc2ccc(NC(=O)Nc3ccc(Cl)c(C(F)(F)F)c3)c(F)c2)ccn1 [Regorafenib (BAY 73-4506), Regorafenib]","efficacy when combined with TRAILPEG (relative cell death, KI+TRAILPEG / KI alone)",[1]; HT29 cells pretreated with KI for 24 hours before TRAILPEG,synergistic efficacy
same,KIs that sensitize cancer cells to TRAIL-based agents,[1]; HT-29 colorectal adenocarcinoma,Example KIs that sensitize cancer cells to TRAIL-based agents.
same,KIs that sensitize cancer cells to TRAIL-based agents,[2],Example KIs that sensitize cancer cells to TRAIL-based agents.
same,KIs that sensitize cancer cells to TRAIL-based agents,[3],Example KIs that sensitize cancer cells to TRAIL-based agents.
same,TRAIL-induced apoptosis,[4]; listed as Regorafenib,potentiated
same,TRAIL-induced apoptosis,[4]; listed as regorafenib,enhanced
same,RIP-1,[5],dose-dependently downregulated
same,"anti-apoptotic proteins c-FLIP, MCL-1, BCL-2, and BCL-XL",[5]; regorafenib 2 μM,downregulated
same,"caspase-dependent TRAILPEG-induced apoptosis (PARP-1 cleavage, caspase activation)",[5]; regorafenib 2 μM,significantly sensitized
same,DR4 mRNA,[6]; 24 or 48 hour,significantly upregulate; also recorded: upregulated
same,DRS mRNA,[6]; 24 or 48 hour,minimally induced
same,DcR2 expression,[6]; 48 hour,down-regulating; also recorded: rarely detectable
same,DR4 protein,[7]; listed as Regorafenib,highly expressed
same,DR4 protein,[7]; listed as regorafenib,up-regulation
same,anti-apoptotic proteins MCL-1 and BCL-2,[7]; listed as regorafenib,absent; also recorded: down-regulated
same,TRAIL-induced apoptosis,[8]; listed as Regorafenib,potentiated
same,TRAIL-induced apoptosis,[8]; listed as regorafenib,enhanced
same,anti-apoptotic protein MCL-1,[9]; [15],downregulated
same,"caspase-dependent TRAILPEG-induced apoptosis (PARP-1 cleavage, caspase activation)",[9]; [15],significantly sensitized
same,apoptosis by single agent,[9]; regorafenib or TRAILPEG alone,did not induce strong apoptosis
same,tumor growth / tumor volume,[10],moderate tumor reduction
"TRAIL: Tumor necrosis factor (TNF)-related apoptosis-inducing ligand, member of the TNF family",TRAIL-induced apoptosis (cell death) by TRAIL,[11],resistance to TRAIL-induced apoptosis
same,circulating half-life,[12],66 min
"dulanermin: recombinant TRAIL, native-type, short-acting",half-life,[13],5 min
same,therapeutic benefit,"[14]; cancer patients, monotherapy studies",failed to demonstrate a robust therapeutic benefit
same,anticancer activity,"[14]; combined with chemotherapy, lung and colon cancer patients",did not reveal improved anticancer activity
same,tolerability,"[14]; human, in vivo",broad tolerability
